Source: PubChem BioAssay AID270 (DTP/NCI, 2004)
Results filed as inconclusive are left out.

System: BDF1 mice, s.c. Lewis lung carcinoma, T/C %
Assay: NCI In Vivo Anticancer Drug Screen. Data for tumor model Lewis Lung Carcinoma (subcutaneous) in B6D2F1 (BDF1) mice
Summary of the method: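 The value reflects a ratio in which the treated cohort's survival time or tumour size is compared against mice receiving only vehicle.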

Structure (SMILES): O=NN(CCCl)C(=O)N[C@H]1CCCC[C@@H]1Cl
- T/C (endpoint: median survival time, dose: 9.0 mg/kg/injection, schedule: Q01DX001 (ip), vehicle: Klucel (hydroxypropylcellulose) (HPC), higher = longer survival): 112 % of control
- T/C (endpoint: median survival time, dose: 11.0 mg/kg/injection, schedule: Q01DX001 (ip), vehicle: gum acacia, higher = longer survival): 114 % of control
- T/C (endpoint: median survival time, dose: 17.0 mg/kg/injection, schedule: Q01DX001 (ip), vehicle: gum acacia, higher = longer survival): 107 % of control
- T/C (endpoint: median survival time, dose: 18.0 mg/kg/injection, schedule: Q01DX001 (ip), vehicle: Klucel (hydroxypropylcellulose) (HPC), higher = longer survival): 124 % of control
- T/C (endpoint: median survival time, dose: 25.0 mg/kg/injection, schedule: Q01DX001 (ip), vehicle: gum acacia, higher = longer survival): 95 % of control
- T/C (endpoint: median survival time, dose: 25.0 mg/kg/injection, schedule: Q04DX004 (ip), vehicle: gum acacia, higher = longer survival): 172 % of control
- T/C (endpoint: median survival time, dose: 45.0 mg/kg/injection, schedule: Q07DX002 (ip), vehicle: gum acacia, higher = longer survival): 159 % of control
- T/C (endpoint: median survival time, dose: 72.0 mg/kg/injection, schedule: Q01DX001 (ip), vehicle: Klucel (hydroxypropylcellulose) (HPC), higher = longer survival): 122 % of control
- T/C (endpoint: median tumor weight (est.), dose: 18.0 mg/kg/injection, schedule: Q01DX001 (ip), vehicle: gum acacia, higher = larger tumour): 68 % of control
- T/C (endpoint: median tumor weight (est.), dose: 37.0 mg/kg/injection, schedule: Q01DX001 (ip), vehicle: gum acacia, higher = larger tumour): 23 % of control
- T/C (endpoint: median tumor weight (est.), dose: 55.0 mg/kg/injection, schedule: Q01DX001 (ip), vehicle: gum acacia, higher = larger tumour): 7 % of control

Structure (SMILES): CCCCCC[C@H]([C@H](C)O)n1cnc2c(N)ncnc21
- T/C (endpoint: median survival time, dose: 25.0 mg/kg/injection, schedule: Q01DX009 (ip), vehicle: Klucel (hydroxypropylcellulose) (HPC), higher = longer survival): 88 % of control
- T/C (endpoint: median survival time, dose: 50.0 mg/kg/injection, schedule: Q01DX009 (ip), vehicle: Klucel (hydroxypropylcellulose) (HPC), higher = longer survival): 103 % of control
- T/C (endpoint: median survival time, dose: 100.0 mg/kg/injection, schedule: Q01DX009 (ip), vehicle: Klucel (hydroxypropylcellulose) (HPC), higher = longer survival): 111 % of control

Structure (SMILES): [N-]=[N+]=CC(=O)CCC(N)C(=O)O (stereo unspecified)
- T/C (endpoint: median survival time, dose: 0.1 mg/kg/injection, schedule: Q01DX009 (ip), vehicle: saline, higher = longer survival): 121 % of control
- T/C (endpoint: median survival time, dose: 0.2 mg/kg/injection, schedule: Q01DX009 (ip), vehicle: saline, higher = longer survival): 110 % of control
- T/C (endpoint: median survival time, dose: 94.0 mg/kg/injection, schedule: Q01DX001 (ip), vehicle: saline, higher = longer survival): 120 % of control
- T/C (endpoint: median survival time, dose: 210.0 mg/kg/injection, schedule: Q01DX001 (ip), vehicle: saline, higher = longer survival): 107 % of control

Structure (SMILES): C[C@]12CC[C@H](O)CC1=CC[C@@H]1[C@@H]2CC[C@]2(C)c3nc4ccccc4cc3C[C@@H]12
- T/C (endpoint: mean tumor weight, dose: 0.2 mg/kg/injection, schedule: Q01DX011 (sc), vehicle: steriod suspending solution, higher = larger tumour): 104 % of control
- T/C (endpoint: mean tumor weight, dose: 0.4 mg/kg/injection, schedule: Q01DX011 (sc), vehicle: steriod suspending solution, higher = larger tumour): 87 % of control
- T/C (endpoint: mean tumor weight, dose: 0.8 mg/kg/injection, schedule: Q01DX011 (sc), vehicle: steriod suspending solution, higher = larger tumour): 95 % of control
- T/C (endpoint: mean tumor weight, dose: 1.6 mg/kg/injection, schedule: Q01DX011 (sc), vehicle: steriod suspending solution, higher = larger tumour): 117 % of control
- T/C (endpoint: mean tumor weight, dose: 3.25 mg/kg/injection, schedule: Q01DX011 (sc), vehicle: steriod suspending solution, higher = larger tumour): 93 % of control
- T/C (endpoint: mean tumor weight, dose: 7.5 mg/kg/injection, schedule: Q01DX011 (sc), vehicle: steriod suspending solution, higher = larger tumour): 63 % of control
- T/C (endpoint: mean tumor weight, dose: 15.6 mg/kg/injection, schedule: Q01DX011 (sc), vehicle: steriod suspending solution, higher = larger tumour): 70 % of control
- T/C (endpoint: mean tumor weight, dose: 31.3 mg/kg/injection, schedule: Q01DX011 (sc), vehicle: steriod suspending solution, higher = larger tumour): 43 % of control
- T/C (endpoint: mean tumor weight, dose: 60.0 mg/kg/injection, schedule: Q01DX011 (sc), vehicle: steriod suspending solution, higher = larger tumour): 95 % of control
- T/C (endpoint: mean tumor weight, dose: 62.5 mg/kg/injection, schedule: Q01DX011 (sc), vehicle: steriod suspending solution, higher = larger tumour): 91 % of control
- T/C (endpoint: mean tumor weight, dose: 90.0 mg/kg/injection, schedule: Q01DX011 (sc), vehicle: steriod suspending solution, higher = larger tumour): 83 % of control
- T/C (endpoint: mean tumor weight, dose: 125.0 mg/kg/injection, schedule: Q01DX011 (sc), vehicle: steriod suspending solution, higher = larger tumour): 52 % of control
- T/C (endpoint: mean tumor weight, dose: 500.0 mg/kg/injection, schedule: Q01DX011 (sc), vehicle: steriod suspending solution, higher = larger tumour): 77 % of control

Structure (SMILES): COc1cc(NC(=O)CN(CCCl)CCCl)cc(OC)c1OC
- T/C (endpoint: median survival time, dose: 50.0 mg/kg/injection, schedule: Q01DX009 (ip), vehicle: saline with Tween-80, higher = longer survival): 88 % of control
- T/C (endpoint: median survival time, dose: 100.0 mg/kg/injection, schedule: Q01DX009 (ip), vehicle: saline with Tween-80, higher = longer survival): 98 % of control
- T/C (endpoint: median survival time, dose: 200.0 mg/kg/injection, schedule: Q01DX009 (ip), vehicle: saline with Tween-80, higher = longer survival): 94 % of control

Structure (SMILES): CC1C/C=C2\CSC(NC(=O)/C3=C\N(C/C=C/C=C/C(O)CC(O)CC(=O)N3)C2=O)C(=O)O1 (stereo unspecified)
- T/C (endpoint: mean tumor weight, dose: 10.6 mg/kg/injection, schedule: Q01DX011 (ip), vehicle: carboxymethylcellulose (CMC), higher = larger tumour): 88 % of control
- T/C (endpoint: mean tumor weight, dose: 16.0 mg/kg/injection, schedule: Q01DX011 (ip), vehicle: carboxymethylcellulose (CMC), higher = larger tumour): 169 % of control
- T/C (endpoint: mean tumor weight, dose: 24.0 mg/kg/injection, schedule: Q01DX011 (ip), vehicle: carboxymethylcellulose (CMC), higher = larger tumour): 68 % of control
- T/C (endpoint: mean tumor weight, dose: 36.0 mg/kg/injection, schedule: Q01DX011 (ip), vehicle: carboxymethylcellulose (CMC), higher = larger tumour): 114 % of control

Structure (SMILES): NC(Cc1ccc(N(CCCl)CCCl)cc1)C(=O)O (stereo unspecified)
- T/C (endpoint: mean tumor weight, dose: 1.5 mg/kg/injection, schedule: Q01DX011 (ip), vehicle: carboxymethylcellulose (CMC), higher = larger tumour): 75 % of control
- T/C (endpoint: mean tumor weight, dose: 2.5 mg/kg/injection, schedule: Q01DX011 (ip), vehicle: saline, higher = larger tumour): 52 % of control
- T/C (endpoint: mean tumor weight, dose: 3.0 mg/kg/injection, schedule: Q01DX011 (ip), vehicle: carboxymethylcellulose (CMC), higher = larger tumour): 50 % of control
- T/C (endpoint: mean tumor weight, dose: 4.5 mg/kg/injection, schedule: Q01DX011 (ip), vehicle: carboxymethylcellulose (CMC), higher = larger tumour): 32 % of control
- T/C (endpoint: mean tumor weight, dose: 5.0 mg/kg/injection, schedule: Q01DX011 (ip), vehicle: saline, higher = larger tumour): 33 % of control
- T/C (endpoint: mean tumor weight, dose: 10.0 mg/kg/injection, schedule: Q01DX011 (ip), vehicle: saline, higher = larger tumour): 3 % of control

Structure (SMILES): CO[C@@]12[C@H](COC(N)=O)C3=C(C(=O)C(C)=C(N)C3=O)N1C[C@@H]1N[C@@H]12
- T/C (endpoint: median survival time, dose: 0.12 mg/kg/injection, schedule: Q01DX009 (ip), vehicle: saline, higher = longer survival): 98 % of control
- T/C (endpoint: median survival time, dose: 0.25 mg/kg/injection, schedule: Q01DX009 (ip), vehicle: Klucel (hydroxypropylcellulose) (HPC), higher = longer survival): 96 % of control
- T/C (endpoint: median survival time, dose: 0.25 mg/kg/injection, schedule: Q01DX009 (ip), vehicle: saline, higher = longer survival): 98 % of control
- T/C (endpoint: median survival time, dose: 0.5 mg/kg/injection, schedule: Q01DX009 (ip), vehicle: Klucel (hydroxypropylcellulose) (HPC), higher = longer survival): 96 % of control
- T/C (endpoint: median survival time, dose: 0.5 mg/kg/injection, schedule: Q01DX009 (ip), vehicle: saline, higher = longer survival): 96 % of control
- T/C (endpoint: median survival time, dose: 1.0 mg/kg/injection, schedule: Q01DX009 (ip), vehicle: saline, higher = longer survival): 103 % of control

Structure (SMILES): O=C1C=Cc2ccc(O)cc2C1=O
- T/C (endpoint: mean tumor weight, dose: 0.57 mg/kg/injection, schedule: Q01DX011 (ip), vehicle: saline, higher = larger tumour): 104 % of control
- T/C (endpoint: mean tumor weight, dose: 0.86 mg/kg/injection, schedule: Q01DX011 (ip), vehicle: saline, higher = larger tumour): 81 % of control
- T/C (endpoint: mean tumor weight, dose: 1.3 mg/kg/injection, schedule: Q01DX011 (ip), vehicle: saline, higher = larger tumour): 59 % of control
- T/C (endpoint: mean tumor weight, dose: 2.0 mg/kg/injection, schedule: Q01DX011 (ip), vehicle: saline, higher = larger tumour): 60 % of control

Structure (SMILES): COC1C(OC(=O)c2ccc(C)[nH]2)C(O)C(Oc2ccc3c(O)c(NC(=O)c4ccc(O)c(CC=C(C)C)c4)c(=O)oc3c2Cl)OC1(C)C (stereo unspecified)
- T/C (endpoint: median survival time, dose: 0.38 mg/kg/injection, schedule: Q01DX009 (ip), vehicle: other, higher = longer survival): 113 % of control
- T/C (endpoint: median survival time, dose: 0.75 mg/kg/injection, schedule: Q01DX009 (ip), vehicle: other, higher = longer survival): 91 % of control
- T/C (endpoint: median survival time, dose: 3.0 mg/kg/injection, schedule: Q01DX007 (ip), vehicle: other, higher = longer survival): 88 % of control
- T/C (endpoint: median survival time, dose: 3.0 mg/kg/injection, schedule: Q01DX009 (ip), vehicle: other, higher = longer survival): 117 % of control
- T/C (endpoint: median survival time, dose: 6.0 mg/kg/injection, schedule: Q01DX007 (ip), vehicle: other, higher = longer survival): 93 % of control
- T/C (endpoint: median survival time, dose: 6.0 mg/kg/injection, schedule: Q01DX009 (ip), vehicle: other, higher = longer survival): 98 % of control
- T/C (endpoint: median survival time, dose: 12.0 mg/kg/injection, schedule: Q01DX007 (ip), vehicle: other, higher = longer survival): 98 % of control
- T/C (endpoint: median survival time, dose: 24.0 mg/kg/injection, schedule: Q01DX007 (ip), vehicle: other, higher = longer survival): 91 % of control
- T/C (endpoint: median survival time, dose: 24.0 mg/kg/injection, schedule: Q01DX009 (ip), vehicle: other, higher = longer survival): 88 % of control
- T/C (endpoint: median survival time, dose: 25.0 mg/kg/injection, schedule: Q01DX009 (ip), vehicle: other, higher = longer survival): 90 % of control
- T/C (endpoint: median survival time, dose: 48.0 mg/kg/injection, schedule: Q01DX007 (ip), vehicle: other, higher = longer survival): 107 % of control
- T/C (endpoint: median survival time, dose: 50.0 mg/kg/injection, schedule: Q01DX009 (ip), vehicle: other, higher = longer survival): 105 % of control
